Results reported in patent US9724358B2, “Minocycline compounds and methods of use thereof” (Paratek Pharmaceuticals, Inc., priority 2008, dated 2017).

What was measured:
Mixed GPC = assay: Phase 2 CSSSI study, clinical outcome by organism: Mixed GPC; assay type: in vivo; details: ME population
Experimental: (§1) A randomized (1:1), controlled, evaluator-blinded Phase 2 study comparing 9-[(2,2-dimethyl-propyl amino)-methyl-minocycline (compound 1) and linezolid (Zyvox™) for the treatment of complicated skin and skin structure infections (CSSSI) was conducted. Patients with CSSSI who required initial intravenous (IV) therapy and met inclusion and exclusion criteria were enrolled at 11 centers in the US and were randomized to receive either compound 1 (100 mg Q24 h IV with 200 mg Q24 h oral step-down) or linezolid (600 mg Q12 h IV with 600 mg Q12 h oral step-down).
(§2) An infecting pathogen was defined as an isolate derived from the last positive culture taken from the site of infection under study prior to and including day 1.

[1] = system: complicated skin and skin structure infections (CSSSI); assay: Phase 2 study in CSSSI, clinical outcome at test of cure; assay type: in vivo, human
Experimental: as §1
(§3) All subjects had four structured evaluations: at Enrollment (Baseline); at End of IV Treatment; at End of Treatment; and at 10 to 17 days after last dose of treatment (test of cure (TOC) evaluation). In addition, the blinded investigator saw each subject daily while they were on IV therapy and at least every 3 days while receiving oral treatment to determine whether to continue current treatment, switch from IV to oral therapy, or discontinue treatment.
At each of the four structured evaluations, the blinded evaluator assessed the subject, with particular attention to scoring the findings at the primary site of infection and obtaining cultures. Clinical and microbiologic outcomes were determined using these assessments. Primary evaluation criteria was safety and tolerability compared with linezolid. Secondary evaluation criteria was efficacy of compound 1 compared to linezolid, as well as pharmacokinetics of compound 1.
At each scheduled evaluation, the blinded evaluator examined the primary site of infection; for patients with multiple non-contiguous areas of infection, the blinded evaluator identified the most severely affected portion at Enrollment and designated that as the primary site of infection. The following information was recorded for each patient: maximal linear dimension of area of continuous involvement of infection; maximal linear dimension of ulceration, if present; semi-qualitative (scale of 0 to 3; none, mild, marked, severe) description of infection for the following features: erythema, edema/induration, fluctuance, necrotic tissue, purulence (including drainage), and tenderness/pain. In addition, at the Enrollment Evaluation, the following were also recorded the anatomical location of the primary site of infection; and the clinical diagnosis of the type of the infection.
Both the investigational drug, compound 1, and the comparator drug, Zyvox™ were administered intravenously and orally. Patients randomized to linezolid may have received aztreonam IV for suspected or documented gram-negative infection. Subjects were initially treated with study drug IV and then switched to oral therapy. The expected duration of IV treatment was up to 7 days; the expected total duration of treatment (IV and oral) was up to 14 days.
For IV administration, the HCl salt of compound 1 for injection was given as 100 mg in 100 ml sterile saline infused over 30 minutes q24 h. For oral administration, compound 1 100 mg capsules were taken fasting as 2 capsules with 8 oz. water q24 h. No food was to be taken for 30 to 60 minutes after dosing and no dairy products for 4 hours.
Linezolid (Zyvox™) 600 mg tablets and pre-mixed 600 mg IV infusion solution (300 ml volume) were obtained from commercial sources. Linezolid 600 mg IV was administered as a 30 minute infusion.
Efficacy analyses were performed on several populations of subjects. Subjects were analyzed for efficacy according to randomization, regardless of treatment administered.
The Intent-to-Treat (ITT) population includes all enrolled subjects who received at least one dose of study medication.
The modified Intent-to-Treat (mITT) population comprises all subjects in the ITT population who have an Infecting Pathogen isolated at prior to administration of the study compound. […]

GNR = assay: Phase 2 CSSSI study, clinical outcome by organism: GNR; assay type: in vivo, gram-negative rods; details: ME population
Experimental: as §1, §2

[2] = Phase 2 CSSSI study, subject disposition (discontinuations); assay type: in vivo, human; details: ITT population
Experimental: as §1, §3

[3] = clinically evaluable population
[4] = microbiologically evaluable population

SMILES	Clinical outcome Failure (number) (Mixed GPC)	Clinical outcome Success (number) (Mixed GPC)	Clinical Failure (% of subjects) ([1]; ITT population)	Clinical Failure (number of subjects) ([1]; ITT population)	Clinical Failure: Failure (% of subjects) ([1]; ITT population)	Clinical Failure: Failure (number of subjects) ([1]; ITT population)	Clinical Failure: Nonevaluable (% of subjects) ([1]; ITT population)	Clinical Failure: Nonevaluable (number of subjects) ([1]; ITT population)	Clinical Success (% of subjects) ([1]; ITT population)	Clinical Success (number of subjects) ([1]; ITT population)	Clinical Failure (% of subjects) [1, 3] [%]	Clinical Failure (number of subjects) [1, 3]	Clinical Success (% of subjects) [1, 3] [%]	Clinical Success (number of subjects) [1, 3]	Clinical Failure (% of subjects) ([1]; mITT population)	Clinical Failure (number of subjects) ([1]; mITT population)	Clinical Failure: Failure (% of subjects) ([1]; mITT population)	Clinical Failure: Failure (number of subjects) ([1]; mITT population)	Clinical Failure: Nonevaluable (% of subjects) ([1]; mITT population)	Clinical Failure: Nonevaluable (number of subjects) ([1]; mITT population)	also measured
CN(C)c1cc(CNCC(C)(C)C)c(O)c2c1C[C@H]1C[C@H]3[C@H](N(C)C)C(O)=C(C(N)=O)C(=O)[C@@]3(O)C(O)=C1C2=O [Compound 1, 9-[(2,2-dimethyl-propylamino)-methyl]-minocycline]	2	16	(11.7%)	13	(1.8%)	2	(9.9%)	11	(88.3%)	98	2.0	2	98.0	98	(10.7%)	9	(2.4%)	2	(8.3%)	7	Clinical Success (% of subjects) ([1]; ITT population, listed as compound 1): 88.3%; Clinical Success (% of subjects) ([1]; clinically evaluable population, listed as compound 1): 98%; Clinical Success (% of subjects) ([1]; mITT population): (89.3%); Clinical Success (number of subjects) ([1]; mITT population): 75; Clinical Failure (% of subjects) [1, 4]: 2.6%; Clinical Failure (number of subjects) [1, 4]: 2; Clinical Success (% of subjects) [1, 4]: 97.4%; Clinical Success (number of subjects) [1, 4]: 75; Clinical outcome Failure (number) (GNR): 2; Clinical outcome Success (number) (GNR): 7; Premature Discontinuation (% of subjects) [2]: (4.5%); Premature Discontinuation (number of subjects) [2]: 5; Premature Discontinuation due to Adverse Event (% of subjects) [2]: (0.9%); Premature Discontinuation due to Adverse Event (number of subjects) [2]: 1; Premature Discontinuation due to Treatment Failure (% of subjects) [2]: (0.9%); Premature Discontinuation due to Treatment Failure (number of subjects) [2]: 1; Premature Discontinuation due to Adverse Event (number of subjects) ([2]; listed as compound 1): no discontinuations
CC(=O)NCC1CN(c2ccc(N3CCOCC3)c(F)c2)C(=O)O1 (stereo not shown) [Linezolid, N-[[3-(3-fluoro-4-morpholinophenyl)-2-oxooxazolidin-5-yl]methyl]acetamide, reference compound]	2	9	24.1%	26	5.6%	6	18.5%	20	75.9%	82	6.8	6	93.2	82	24.4%	19	5.1%	4	19.2%	15	Clinical Success (% of subjects) ([1]; mITT population): 75.6%; Clinical Success (number of subjects) ([1]; mITT population): 59; Clinical Failure (% of subjects) [1, 4]: 6.3%; Clinical Failure (number of subjects) [1, 4]: 4; Clinical Success (% of subjects) [1, 4]: 93.7%; Clinical Success (number of subjects) [1, 4]: 59; Clinical outcome Failure (number) (GNR): 0; Clinical outcome Success (number) (GNR): 7; Premature Discontinuation (% of subjects) [2]: (7.4%); Premature Discontinuation (number of subjects) [2]: 8; Premature Discontinuation due to Adverse Event (% of subjects) [2]: (1.9%); Premature Discontinuation due to Adverse Event (number of subjects) [2]: 2; Premature Discontinuation due to Treatment Failure (number of subjects) [2]: 0
